Assay results reported in PMC6274772, “Guided Evolution of Recombinant Bombyx mori Acetylcholinesterase II by Homology Modeling to Change Pesticide Sensitivity” (International Journal of Molecular Sciences, 2018).
Read-outs that look alike come from different tables or passages of the source.

Assays:
[1] = biological target: T1, rBmAChE II (recombinant Bombyx mori type II acetylcholinesterase) (Bombyx mori, UniProt B0FGT2, Y398W); details: crude enzyme supernatant, substrate acetylthiocholine iodide (ATChI), DTNB, 50 mM phosphate, 37 °C, covalent
T1 construct: gene ace2

[2] = biological target: T2, rBmAChE II (recombinant Bombyx mori type II acetylcholinesterase) (Bombyx mori, UniProt B0FGT2); assay: Ellman assay inhibition; type: biochemical; details: crude enzyme supernatant; substrate acetylthiocholine iodide (ATChI), DTNB, 50 mM phosphate, 37 °C; covalent
T2 construct: gene ace2; predicted N-terminal signal peptide removed, codon-optimized, pPIC9K in Pichia pastoris GS115, secreted; crude culture supernatant; 604 residues
Description: Ellman assay inhibition on rBmAChE II (recombinant Bombyx mori type II acetylcholinesterase) | inhibition of rBmAChE II mutants by various pesticides (malathion, methomyl, carbaryl, and carbofuran-3-hydroxy)

[3] = biological target: T3, rBmAChE II (recombinant Bombyx mori type II acetylcholinesterase) (Bombyx mori, UniProt B0FGT2, Y398F); details: crude enzyme supernatant; substrate acetylthiocholine iodide (ATChI), DTNB, 50 mM phosphate, 37 °C; covalent
T3 construct: gene ace2

[4] = biological target: T4, rBmAChE II (recombinant Bombyx mori type II acetylcholinesterase) (Bombyx mori, UniProt B0FGT2, Y398G); details: crude enzyme supernatant; substrate acetylthiocholine iodide (ATChI), DTNB, 50 mM phosphate, 37 °C; covalent
T4 construct: gene ace2

[5] = biological target: T2, rBmAChE II (recombinant Bombyx mori type II acetylcholinesterase); type: biochemical; details: 30 µL (printed 30 mL) of 0.1 mg/mL physostigmine, 10 min preincubation at 37 °C; crude enzyme supernatant; ATChI substrate, DTNB, 50 mM phosphate

T3 sequence (B0FGT2 entry or part of it Y398F): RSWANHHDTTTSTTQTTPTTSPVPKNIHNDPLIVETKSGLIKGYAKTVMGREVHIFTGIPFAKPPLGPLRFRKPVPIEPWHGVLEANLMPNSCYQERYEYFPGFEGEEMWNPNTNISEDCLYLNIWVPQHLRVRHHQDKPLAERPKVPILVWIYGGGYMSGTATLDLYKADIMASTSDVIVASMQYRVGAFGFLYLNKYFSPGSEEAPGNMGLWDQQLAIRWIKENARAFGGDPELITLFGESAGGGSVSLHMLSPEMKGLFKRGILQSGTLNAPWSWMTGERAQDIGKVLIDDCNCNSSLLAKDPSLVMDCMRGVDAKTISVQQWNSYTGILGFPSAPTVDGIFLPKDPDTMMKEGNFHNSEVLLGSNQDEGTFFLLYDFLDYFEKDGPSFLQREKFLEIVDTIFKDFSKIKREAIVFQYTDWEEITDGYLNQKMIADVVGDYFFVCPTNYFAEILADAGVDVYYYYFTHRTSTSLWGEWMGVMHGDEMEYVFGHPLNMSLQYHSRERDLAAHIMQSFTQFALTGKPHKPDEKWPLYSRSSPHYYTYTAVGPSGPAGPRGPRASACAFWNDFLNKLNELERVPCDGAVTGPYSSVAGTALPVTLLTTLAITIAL
T1 sequence (B0FGT2 entry or part of it Y398W): as the sequence (B0FGT2 entry or part of it Y398F) above, with F375W counted along it
T2 sequence (B0FGT2 entry or part of it): as the sequence (B0FGT2 entry or part of it Y398F) above, with F375Y counted along it
T4 sequence (B0FGT2 entry or part of it Y398G): as the sequence (B0FGT2 entry or part of it Y398F) above, with F375G counted along it

Compound | IC50 [1] [nM] | IC50 [2] [nM] | IC50 [3] [nM] | IC50 [4] [nM] | IC50 ([1]; stated gain) [nM] | Ellman assay, remaining activity [5]
CNC(=O)Oc1cccc2c1OC(C)(C)C2O (stereo not drawn) [carbofuran-3-hydroxy] | 246 | 76 | 43 | 193 |  | 
CNC(=O)Oc1cccc2ccccc12 [carbaryl] | 16 | 33 | 21 | 56 |  | 
CNC(=O)ON=C(C)SC [methomyl] | 4380 | 750 | 470 |  |  | 
CCOC(=O)CC(SP(=S)(OC)OC)C(=O)OCC (stereo not drawn) [malathion] |  | 2820 | 1130 |  | 5430 | 
CNC(=O)Oc1ccc2c(c1)[C@]1(C)CCN(C)[C@@H]1N2C [physostigmine] |  |  |  |  |  | All four enzyme variants could be inhibited by physostigmine.
